Laboratory results as given in patent publication US12162894B2, “Structural analog of Cyclotheonellazole A, and synthetic method therefor and application method thereof” (The Second People's Hospital of Shenzhen (Shenzhen …, priority 2022, dated 2024).

Target: T1, Neutrophil Elastase (NE) (Homo sapiens, UniProt P08246)
T1 construct: purchased Abcam ab118971
T1 sequence (P08246 30-267): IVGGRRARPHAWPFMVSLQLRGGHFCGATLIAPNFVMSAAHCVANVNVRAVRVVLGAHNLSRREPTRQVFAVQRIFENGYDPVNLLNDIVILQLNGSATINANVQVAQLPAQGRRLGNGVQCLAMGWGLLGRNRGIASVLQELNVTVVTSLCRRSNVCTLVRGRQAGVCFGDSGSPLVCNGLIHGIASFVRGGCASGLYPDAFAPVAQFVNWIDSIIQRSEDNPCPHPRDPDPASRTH
Test: Inhibition of neutrophil elastase (NE), fluorescence kit (Abcam ab118971)
Assay type: biochemical
Settings: 5 min pre-incubation at 37° C.; Ex/Em=400/505 nm; slope of fluorescence; read-out: IC50, enzyme activity of the NE
Protocol: An Inhabitation Effect of the TM to Neutrophil Elastase (NE)
• 1. Experimental materials include a NE protease detection kit (ab118971) of an Abcam company and TM. • 2. Experimental methods are as follows. In a black 96-well plate, a blank well group, a negative control well group and a sample well group are set, and a reaction system is 100 μL. The blank well group is added with 75 μL of buffer, the negative control well group is added with 50 μL of NE protease and 25 μL of buffer, the sample well group is added with 50 μL of NE protease and 25 μL of TM solution (respectively with concentrations of 0.00001 μM, 0.0001 μM, 0.001 μM, 0.003 μM, 0.01 μM 0.1 μM, 1 μM, and 10 μM), and the three groups are incubated at a temperature of 37° C. for 5 min. Each well is added with 25 μL of substrate, after mixing evenly, fluorescence value of each well is immediately detected at Ex/Em=400/505 nm, and is detected every 20 seconds, and a dynamic process within a range of 0-40 min is observed. Two different time points (T1 and T2) are selected within a linear range of the dynamic process to obtain fluorescence values (RFUT1 and RFUT2) corresponding to the time points, a slope of the fluorescence values is calculated, and the slope can be regarded as an enzyme activity of each well. […] A half inhibitory concentration (IC50) is calculated through the Origin 2021 software. • 3.

## CCC[C@@H]1NC(=O)[C@@H](NC=O)CNC(=O)[C@H](CS(=O)(=O)O)NC(=O)/C=C/c2csc(n2)[C@H](Cc2ccc(O)cc2)NC(=O)C(=O)[C@H]([C@@H](C)CC)NC1=O [TM]
  IC50: 1.27 nM
